Measurements from patent publication US20150225303A1, “IRON-ESSENTIAL FOR FLORA AND FAUNA” (priority 2012, published 2015).

Key:
maize crop = assay: Field experiment in maize crop, foliar application; format: in vivo; settings: for Stem girth R1 / Cobs yield R1 / No. of cobs R1 / Seed yield R1: replicate R1; for Cobs yield MEAN / No. of cobs MEAN / Seed yield MEAN / Stem girth MEAN: mean of R1-R3; for Cobs yield R3 / No. of cobs R3 / Seed yield R3 / Stem girth R3: replicate R3
Protocol: Field experiments in maize crop were conducted using the composition of the present invention at Maize Research Centre, Hyderabad during kharif 2009. […] GRIP (Fe HEDP)-15% […]+27% P2O5-1 g/l of water • […] of water • […] of water • T 5: Fe EDTA-12%-1 g/l of water • T 6: […] Control (Only recommended Fertilizer dose) For all the six treatments, the composition of the present invention was used along with the recommended fertilizer dose (180-60-60 kg N-P2O5-K2O/ha). The composition of the present invention (Fe-HEDP) was applied at three stages 20, 40 and 60 days after sowing. The crops were harvested in the month of November i.e. four months after sowing.

[1] = prior art statement; cited from earlier work
[2] = treatment level 2 (2 g/l of water; GRIP T2 printed as 1 g/l)

In the case of O=C([O-])CN(CCN(CC(=O)[O-])CC(=O)[O-])CC(=O)[O-].[Fe+3] [Fe EDTA, Fe-Ethylene diamine tetra acetic acid], the “Stem girth R1” value (maize crop; 1 g/l of water, applied 20, 40 and 60 days after sowing) is reported as 6.6 cm, the “Cobs yield MEAN” value (maize crop; 1 g/l of water) is reported as 7516.67 kg/ha and the “No. of cobs MEAN” value (maize crop; 1 g/l of water) is reported as 40.17 ′000 ha. The “Seed yield MEAN” value (maize crop; 1 g/l of water) was 5777.67 kg/ha, the “Stem girth MEAN” value (maize crop; 1 g/l of water) was 6.53 cm and the “Cobs yield R1” value (maize crop; 1 g/l of water) was 6205 kg/ha. The “No. of cobs R1” value (maize crop; 1 g/l of water) was 38.8 ′000 ha, the “Seed yield R1” value (maize crop; 1 g/l of water) was 5022.0 kg/ha and the “Cobs yield R3” value (maize crop; 1 g/l of water) was 8490 kg/ha. For the same compound, the “No. of cobs R3” value (maize crop; 1 g/l of water) was 41.2 ′000 ha, the “Seed yield R3” value (maize crop; 1 g/l of water) was 6448.0 kg/ha and the “Stem girth R3” value (maize crop; 1 g/l of water) was 6.6 cm. For the same compound, the “Cobs yield MEAN” value (maize crop; [2]) was 7875.00 kg/ha, the “No. of cobs MEAN” value (maize crop; [2]) was 37.8 ′000 ha and the “Seed yield MEAN” value (maize crop; [2]) was 5888.00 kg/ha. The “Stem girth MEAN” value (maize crop; [2]) was 6.43 cm, the “Cobs yield R1” value (maize crop; [2]) was 6935 kg/ha and the “No. of cobs R1” value (maize crop; [2]) was 35.6 ′000 ha. For the same compound, the “Seed yield R1” value (maize crop; [2]) was 4355.0 kg/ha, the “Stem girth R1” value (maize crop; [2]) was 6.5 cm and the “Cobs yield R3” value (maize crop; [2]) was 8200 kg/ha. For the same compound, the “No. of cobs R3” value (maize crop; [2]) was 41.0 ′000 ha, the “Seed yield R3” value (maize crop; [2]) was 7633.0 kg/ha and the “Stem girth R3” value (maize crop; [2]) was 6.1 cm.
For O=C([O-])C(NCCNC(C(=O)[O-])c1ccccc1[O-])c1ccccc1[O-].[Fe+3] (centres unmarked) [Fe-EDDHA, Fe-ethylene diamine-N,N′-bis (2-hydroxyphenylacetic acid)], the “pH level up to which the chelate is stable” value [1] is listed as “up to 11.0”.
For O=C([O-])CN(CCN(CC(=O)[O-])CC(=O)[O-])CCN(CC(=O)[O-])CC(=O)[O-].[Fe+3] [Fe-DTPA, Fe-Diethylene triamine penta acetic acid], the “pH level up to which the chelate is stable” value [1] is given as “up to 7.0”.
